From ChEMBL document CHEMBL1141733, “Cardiovascular effects of aspidofractinine-type alkaloids from Kopsia” (1998)
Activity calls are given as the source filed them. The rule behind the calls is not given here.

Columns and labels:
[1] = system: Rattus norvegicus; assay: Antihypertensive activity in iv dosed anesthetized SHR rat assessed as concomitant fall in heart rate; type: functional, organism-based
[2] = system: Rattus norvegicus; assay: Antihypertensive activity in anesthetized SHR rat assessed as decrease in heart rate at 5 mg/kg, iv; type: functional, organism-based; parameters: dose 5 mg/kg
[3] = system: Rattus norvegicus; assay: Antihypertensive activity in anesthetized SHR rat assessed as decrease in heart rate at 2 mg/kg, iv; type: functional, organism-based; parameters: dose 2 mg/kg
[4] = system: Rattus norvegicus; assay: Antihypertensive activity in anesthetized SHR rat assessed as decrease in heart rate at 1 mg/kg, iv; type: functional, organism-based; parameters: dose 1 mg/kg
[5] = system: Rattus norvegicus; assay: Antihypertensive activity in iv dosed anesthetized SHR rat assessed as decrease in basal mean arterial blood pressure; type: functional, organism-based; settings: Artery
[6] = system: Rattus norvegicus; assay: Increase in basal mean arterial blood pressure anesthetized SHR rat at 0.2 mg/kg, iv; type: functional, organism-based; parameters: dose 0.2 mg/kg
[7] = system: Rattus norvegicus; assay: Increase in basal mean arterial blood pressure anesthetized SHR rat at 2 mg/kg, iv; type: functional, organism-based; parameters: dose 2 mg/kg
[8] = system: Rattus norvegicus; assay: Increase in basal mean arterial blood pressure anesthetized SHR rat at 10 mg/kg, iv; type: functional, organism-based; parameters: dose 10 mg/kg
[9] = system: Rattus norvegicus; assay: Antihypertensive activity in anesthetized SHR rat assessed as decrease in heart rate at 0.2 mg/kg, iv; type: functional, organism-based; parameters: dose 0.2 mg/kg
[10] = system: Rattus norvegicus; assay: Antihypertensive activity in anesthetized SHR rat assessed as decrease in heart rate at 0.5 mg/kg, iv; type: functional, organism-based; parameters: dose 0.5 mg/kg
[11] = system: Rattus norvegicus; assay: Increase in basal mean arterial blood pressure anesthetized SHR rat at 0.5 mg/kg, iv; type: functional, organism-based; parameters: dose 0.5 mg/kg
[12] = system: Rattus norvegicus; assay: Increase in basal mean arterial blood pressure anesthetized SHR rat at 5 mg/kg, iv; type: functional, organism-based; parameters: dose 5 mg/kg
[13] = system: Rattus norvegicus; assay: (§1) Antihypertensive activity in anesthetized SHR rat assessed as decrease in heart rate at 10 mg/kg, iv; type: functional, organism-based; parameters: dose 10 mg/kg
[14] = system: Rattus norvegicus; assay: Increase in basal mean arterial blood pressure anesthetized SHR rat at 1 mg/kg, iv; type: functional, organism-based; parameters: dose 1 mg/kg
[15] = system: Rattus norvegicus; assay: Antihypertensive activity in anesthetized SHR rat assessed as hypotensive response lasting time at 10 mg/kg, iv; type: functional
[16] = system: Rattus norvegicus; assay: Antihypertensive activity in iv dosed anesthetized WKY rat assessed as hypotensive activity; type: functional, organism-based
[17] = system: Rattus norvegicus; assay: Antihypertensive activity in anesthetized SHR rat assessed as decrease in basal mean arterial blood pressure at 10 mg/kg, iv pretreated with atropine for 10 mins; type: functional, Artery
[18] = system: Rattus norvegicus; assay: Antihypertensive activity in anesthetized SHR rat assessed as decrease in heart rate at 10 mg/kg, iv pretreated with hexamethonium for 10 mins; type: functional, organism-based; parameters: dose 10 mg/kg
[19] = system: Rattus norvegicus; assay: Antihypertensive activity in anesthetized SHR rat assessed as decrease in heart rate at 10 mg/kg, iv pretreated with atropine for 10 mins; type: functional
[20] = system: Rattus norvegicus; assay: Antihypertensive activity in anesthetized SHR rat assessed as decrease in basal mean arterial blood pressure at 10 mg/kg, iv; type: functional, Artery
[21] = system: Rattus norvegicus; assay: Antihypertensive activity in anesthetized SHR rat assessed as decrease in heart rate at 10 mg/kg, iv pretreated with phentolamine for 10 mins; type: functional
[22] = system: Rattus norvegicus; assay: Antihypertensive activity in anesthetized SHR rat assessed as decrease in basal mean arterial blood pressure at 10 mg/kg, iv pretreated with phentolamine for 10 mins; type: functional, Artery
[23] = system: Rattus norvegicus; assay: as §1; type: functional
[24] = system: Rattus norvegicus; assay: Antihypertensive activity in anesthetized SHR rat assessed as decrease in basal mean arterial blood pressure at 10 mg/kg, iv pretreated with hexamethonium for 10 mins; type: functional, organism-based; parameters: dose 10 mg/kg; settings: Artery
[25] = system: Rattus norvegicus; assay: Antihypertensive activity in anesthetized SHR rat assessed as decrease in basal mean arterial blood pressure at 3 mg/kg, iv after 10 mins; type: functional, Artery
[26] = system: Rattus norvegicus; assay: Antihypertensive activity in anesthetized SHR rat assessed as decrease in basal mean arterial blood pressure at 3 mg/kg, iv; type: functional, Artery
[27] = system: Rattus norvegicus; assay: Antihypertensive activity in anesthetized SHR rat assessed as increase in heart rate at 3 mg/kg, iv; type: functional
[28] = system: Rattus norvegicus; assay: Antihypertensive activity in anesthetized SHR rat assessed as decrease in heart rate at 3 mg/kg, iv after 10 mins; type: functional
[29] = system: Rattus norvegicus; assay: Antihypertensive activity in anesthetized SHR rat assessed as decrease in basal mean arterial blood pressure at 2 mg/kg, iv after 24 to 26 seconds; type: functional, Artery
[30] = system: Rattus norvegicus; assay: Antihypertensive activity in anesthetized SHR rat assessed as decrease in heart rate at 2 mg/kg, iv after 24 to 26 seconds; type: functional
[31] = system: Rattus norvegicus; assay: Antihypertensive activity in anesthetized SHR rat assessed as heart rate at 2 mg/kg, iv after 10 mins; type: functional
[32] = system: Rattus norvegicus; assay: Antihypertensive activity in anesthetized SHR rat assessed as basal mean arterial blood pressure at 2 mg/kg, iv after 10 mins; type: functional, Artery
[33] = system: Rattus norvegicus; assay: Antihypertensive activity in anesthetized SHR rat assessed as decrease in basal mean arterial blood pressure at 20 mg/kg, iv after 1 to 1.5 mins; type: functional, Artery
[34] = system: Rattus norvegicus; assay: Antihypertensive activity in anesthetized SHR rat assessed as decrease in heart rate at 20 mg/kg, iv after 1 to 1.5 mins; type: functional
[35] = system: Rattus norvegicus; assay: Antihypertensive activity in anesthetized SHR rat assessed as decrease in basal mean arterial blood pressure at 20 mg/kg, iv after 10 mins; type: functional, Artery
[36] = system: Rattus norvegicus; assay: Antihypertensive activity in anesthetized SHR rat assessed as decrease in heart rate at 20 mg/kg, iv after 10 mins; type: functional

With COC(=O)N1c2c(OC)cccc2[C@@]23CCN4[C@@H]5C[C@@H](OC)[C@]6(CC[C@]12[C@](O)(C(=O)OC)[C@H]6O5)[C@H]43 the Activity [1] was “Dose-dependent effect”, the Activity [2] was “Active” and the Activity [3] was “Active”. For the same compound, the Activity [4] was “Active”, the Activity [5] was “Dose-dependent effect” and the Activity [6] was “Active”. For the same compound, the Activity [7] was “Active”, the Activity [8] was “Active” and the Activity [9] was “Active”. The Activity [10] was “Active”, the Activity [11] was “Active” and the Activity [12] was “Active”. The Activity [13] was “Active” and the Activity [14] was “Active”.

For COC(=O)N1c2c(OC)cccc2[C@@]23CCN4CC=C[C@]5(CC[C@]12[C@](O)(C(=O)OC)[C@@H]5O)[C@H]43 [KOPSINGINE], the Activity [1] was “Dose-dependent effect”, the Activity [15] was 3.9 min and the Activity [16] was “Dose-dependent effect”. The Activity [17] was -51 mmHg, the Activity [5] was “Dose-dependent effect” and the Activity [18] was “inactive”. The Activity [19] was -71.5 bpm, the Activity [20] was -68.5 mmHg and the Activity [21] was 66.7 bpm. The Activity [22] was 30.7 mmHg, the Activity [23] was -101 bpm and the Activity [24] was “inactive”.

COC(=O)N1c2ccccc2[C@]23CCN4CC=C[C@@]5(CC[C@@]12[C@@](O)(C(=O)OC)[C@H]5O)[C@@H]43 [KOPSAPORINE] was tested, and the Activity [15] was 3.6 min and the Activity [5] was “Dose-dependent effect”.

For COC(=O)N1c2c(OC)cccc2[C@@]23CCN4[C@H]5CC[C@]6(CC[C@]12[C@](O)(C(=O)OC)[C@@H]6O5)[C@H]43, the Activity [1] was “Dose-dependent effect”, the Activity [2] was “Active” and the Activity [3] was “Active”. The Activity [5] was “Dose-dependent effect”, the Activity [18] was “Active” and the Activity [6] was “Active”. For the same compound, the Activity [7] was “Active”, the Activity [8] was “Active” and the Activity [9] was “Active”. The Activity [10] was “Active”, the Activity [11] was “Active” and the Activity [12] was “Active”. For the same compound, the Activity [13] was “Active”, the Activity [24] was “Active” and the Activity [14] was “Active”.

With COC(=O)N1c2c(OC)cccc2[C@@]23CCN4CCC[C@]5(CC[C@]12[C@](O)(C(=O)OC)[C@@H]5O)[C@H]43 [DIHYDROKOPSINGINE] the Activity [1] was “Dose-dependent effect”, the Activity [5] was “Dose-dependent effect” and the Activity [18] was “inactive”. It also gave an Activity [20] of -44.7 mmHg, an Activity [21] of -52.5 bpm and an Activity [22] of 18.2 mmHg. The Activity [23] was -49.2 bpm and the Activity [24] was “inactive”.

Cc1ccc(N(CC2=NCCN2)c2cccc(O)c2)cc1 [PHENTOLAMINE] was tested, and the Activity [25] was 108.4 mmHg, the Activity [26] was 106.7 mmHg and the Activity [27] was 372.5 bpm. The Activity [28] was 356.7 bpm.

Work on CN1[C@@H]2CC[C@H]1C[C@@H](OC(=O)C(CO)c1ccccc1)C2 (stereo partly drawn) [ATROPINE] yielded an Activity [29] of 155.6 mmHg, an Activity [30] of 371 bpm and an Activity [31] of 368 bpm. It also gave an Activity [32] of 160.9 mmHg.

Work on C[N+](C)(C)CCCCCC[N+](C)(C)C.[Cl-].[Cl-] [HEXAMETHONIUM CHLORIDE] yielded an Activity [33] of 92 mmHg, an Activity [34] of 313.6 bpm and an Activity [35] of 104.8 mmHg. It also gave an Activity [36] of 296.8 bpm.
